Measurements reported in patent publication US11464770B2, “Anticancer pharmaceutical composition” (NATIONAL CANCER CENTER, priority 2016, dated 2022).
Where two headings read alike, the source gives them in different places.

System: pancreatic cancer cell lines (e.g. MIA PaCa-2)
Assay: Cell based assay, cell viability (CellTiter-Glo), pancreatic cancer cell lines
Conditions: Homo sapiens
Procedure: Commercially available bladder cancer, prostate cancer, lung cancer, breast cancer, blood cancer, pancreatic cancer, colorectal cancer, brain cancer, neuroblastoma, melanoma, liver cancer, cervical carcinoma, ovarian cancer, renal cancer, and papilloma cell lines were each treated with trypsin-EDTA and cultured, followed by being seeded in each well of a 96 well plate. After 24 hours of treatment at constant temperature, the respective cells were treated with the candidate compound so that a final concentration became 0 to 2 μM. The treated cells were additionally cultured for 72 hours, and cell viability was measured by using an ATP detection method (CellTiter-Glo® Luminescent Cell Viability Assay, Promega).

[1] = pancreatic cancer cell line AsPC-1, 72 hours, read-out: IC50, AsPC-1
[2] = pancreatic cancer cell line BxPC-3, 72 hours, read-out: IC50, BxPC-3
[3] = pancreatic cancer cell line CFPAC-1, 72 hours, read-out: IC50, CFPAC-1
[4] = pancreatic cancer cell line Capan-1, 72 hours, read-out: IC50, Capan-1
[5] = pancreatic cancer cell line Capan-2, 72 hours, read-out: IC50, Capan-2
[6] = pancreatic cancer cell line MIA PaCa-2, 72 hours, read-out: IC50, MIA PaCa-2
[7] = pancreatic cancer cell line PANC-1, 72 hours, read-out: IC50, PANC-1

Structure (SMILES)	IC50 [1] [µM]	IC50 [2] [µM]	IC50 [3] [µM]	IC50 [4] [µM]	IC50 [5] [µM]	IC50 [6] [µM]	IC50 [7] [µM]
COc1cccc2[nH]c(SCc3ccc(S(F)(F)(F)(F)F)cc3)c(C(C)=O)c(=O)c12 [Compound 92, 3-acetyl-5-methoxy-2-((4-(pentafluoro--sulfanyl)benzyl)thio)quinolin-4(1H)-one]	> 2	> 2	> 10	> 2	> 2	> 2	> 2
CC(=O)c1c(SCc2cccc(F)c2)[nH]c2c(Br)ccc(Cl)c2c1=O [Compound 49, 3-acetyl-8-bromo-5-chloro-2-((3-fluorobenzyl)thio)quinolin-4(1H)-one]	> 2	> 2	> 10	> 2	> 2	> 2	> 2
CC(=O)c1c([S+]([O-])Cc2ccc(S(F)(F)(F)(F)F)cc2)[nH]c2c(F)ccc(F)c2c1=O (stereo not drawn) [Compound 80, 3-acetyl-5,8-difluoro-2-((4-(pentafluoro--sulfanyl)benzyl)sulfinyl)quinolin-4(1H)-one]	> 2	> 2	> 10	> 2	> 2	> 2	> 2
CC(=O)c1c(SC(C)C)[nH]c2c(Br)ccc(Cl)c2c1=O [Compound 24, 3-acetyl-8-bromo-5-chloro-2-(isopropylthio)quinolin-4(1H)-one]	> 2	> 2	> 10	> 2	> 2	> 2	> 2
O=C(c1ccccc1)c1c([S+]([O-])Cc2ccc(S(F)(F)(F)(F)F)cc2)[nH]c2c(F)ccc(F)c2c1=O (stereo not drawn) [Compound 87, 3-benzoyl-5,8-difluoro-2-((4-(pentafluoro--sulfanyl)benzyl)sulfinyl)quinolin-4(1H)-one]	> 2	> 2	> 10	> 2	> 2	> 2	> 2
CC(=O)c1c([S+](C)[O-])n(S(=O)(=O)C(F)(F)F)c2c(Br)ccc(Cl)c2c1=O (stereo not drawn) [Compound 36, 3-acetyl-8-bromo-5-chloro-2-(methylsulfinyl)-1-((trifluoromethyl)sulfonyl)quinolin-4(1H)-one]	> 2	> 2	> 10	> 2	> 2	> 2	> 2
CC(=O)c1c([S+]([O-])Cc2cccc(C#N)c2)[nH]c2c(Br)ccc(Cl)c2c1=O (stereo not drawn) [Compound 28, 3-(((3-acetyl-8-bromo-5-chloro-4-oxo-1,4-dihydroquinolin-2-yl)sulfinyl)methyl)benzonitrile]	> 2	> 2	> 10	> 2	> 2	0.88	> 2
CC(=O)c1c([S+]([O-])c2ccccc2)[nH]c2c(Br)ccc(Cl)c2c1=O (stereo not drawn) [Compound 13, 3-acetyl-8-bromo-5-chloro-2-(phenylsulfinyl)quinolin-4(1H)-one]	> 2	> 2	> 10	> 2	> 2	> 2	> 2
CSc1c(C(C)=O)c(=O)c2c(Cl)ccc(Br)c2n1C(C)=O [Compound 18, 1,1′-(8-bromo-5-chloro-2-(methylthio)-4-oxoquinoline-1,3(4H)-diyl)bis(ethan-1-one)]	> 2	> 2	> 10	> 2	> 2	> 2	> 2
CC(=O)c1c(SCc2ccc(Cl)cc2)[nH]c2c(Br)ccc(Cl)c2c1=O [Compound 10, 3-acetyl-8-bromo-5-chloro-2-((4-chlorobenzyl)thio)quinolin-4(1H)-one]	> 2	> 2	> 10	> 2	> 2	> 2	> 2
CC(=O)c1c(S)[nH]c2c(Br)ccc(Cl)c2c1=O [Compound 62, 3-acetyl-8-bromo-5-chloro-2-mercaptoquinolin-4(1H)-one]	> 2	> 2	> 10	> 2	> 2	> 2	> 2
CC(=O)c1c(SCc2cc(Cl)ccc2Cl)[nH]c2c(Br)ccc(Cl)c2c1=O [Compound 43, 3-acetyl-8-bromo-5-chloro-2-((2,5-dichlorobenzyl)thio)quinolin-4(1H)-one]	> 2	> 2	> 10	> 2	> 2	> 2	> 2
CC(=O)c1c([S+]([O-])CN2C(=O)c3ccccc3C2=O)[nH]c2c(Cl)ccc(Cl)c2c1=O (stereo not drawn) [Compound 90, 2-(((3-acetyl-5,8-dichloro-4-oxo-1,4-dihydroquinolin-2-yl)sulfinyl)methyl)isoindoline-1,3-dione]	> 2	> 2	> 10	> 2	> 2	> 2	> 2
CSc1[nH]c2ccc(F)cc2c(=O)c1C(C)=O [Compound 8, 1-(6-fluoro-4-hydroxy-2-(methylthio)quinolin-3-yl)ethan-1-one]	> 2	> 2	> 10	> 2	> 2	> 2	> 2
CC(=O)c1c([S+]([O-])Cc2ccc(Cl)nc2)[nH]c2c(Br)ccc(Cl)c2c1=O (stereo not drawn) [Compound 104, 3-acetyl-8-bromo-5-chloro-2-(((6-chloropyridin-3-yl)methyl)sulfinyl)quinolin-4(1H)-one]	> 2	> 2	> 10	1.59	> 2	0.79	> 2
CC(=O)c1c(SCc2ccc(F)c(Cl)c2)[nH]c2c(Br)ccc(Cl)c2c1=O [Compound 30, 3-acetyl-8-bromo-5-chloro-2-((3-chloro-4-fluorobenzyl)thio)quinolin-4(1H)-one]	> 2	> 2	> 10	> 2	> 2	> 2	> 2
CC(=O)c1c([S+]([O-])Cc2cc(C)on2)[nH]c2c(F)ccc(F)c2c1=O (stereo not drawn) [Compound 82, 3-acetyl-5,8-difluoro-2-(((5-methylisoxazol-3-yl)methyl)sulfinyl)quinolin-4(1H)-one]	> 2	> 2	> 10	> 2	> 2	> 2	> 2
CSc1c(C(C)=O)c(=O)c2cc(F)ccc2n1C [Compound 7, 3-acetyl-6-fluoro-1-methyl-2-(methylthio)quinolin-4(1H)-one]	> 2	> 2	> 10	> 2	> 2	> 2	> 2
CC(=O)c1c([S+](C)[O-])n(Cc2ccc(F)c(Cl)c2)c2c(Br)ccc(Cl)c2c1=O (stereo not drawn) [Compound 22, 3-acetyl-8-bromo-5-chloro-1-(3-chloro-4-fluorobenzyl)-2-(methylsulfinyl)quinolin-4(1H)-one]	> 2	> 2	> 10	> 2	> 2	> 2	> 2
CC(=O)c1c(SCc2ccccc2)[nH]c2c(Br)ccc(Cl)c2c1=O [Compound 3, 3-acetyl-2-(benzylthio)-8-bromo-5-chloroquinolin-4(1H)-one]	> 2	> 2	> 10	> 2	> 2	> 2	> 2
CC(=O)c1c([S+]([O-])Cc2ccc(NS(C)(=O)=O)cc2)[nH]c2c(Br)ccc(Cl)c2c1=O (stereo not drawn) [Compound 103, N-(4-(((3-acetyl-8-bromo-5-chloro-4-oxo-1,4-dihydroquinolin-2-yl)sulfinyl)methyl)phenyl)methane-sulfonamide]	> 2	> 2	> 10	> 2	> 2	> 2	> 2
Cc1cc(C[S+]([O-])c2[nH]c3c(Cl)ccc(Cl)c3c(=O)c2C(=O)C2CC2)no1 (stereo not drawn) [Compound 97, 5,8-dichloro-3-(cyclopropanecarbonyl)-2-(((5-methylisoxazol-3-yl)methyl)sulfinyl)quinolin-4(1H)-one]	1.74	> 2	> 10	1.52	> 2	0.86	> 2
Cc1cc(C[S+]([O-])c2[nH]c3c(Br)ccc(Cl)c3c(=O)c2C(=O)C2CC2)no1 (stereo not drawn) [Compound 96, 8-bromo-5-chloro-3-(cyclopropanecarbonyl)-2-(((5-methylisoxazol-3-yl)methyl)sulfinyl)quinolin-4(1H)-one]	> 2	> 2	> 10	> 2	> 2	1.14	> 2
CC(=O)c1c(SCC#N)[nH]c2c(Br)ccc(Cl)c2c1=O [Compound 66, 2-((3-acetyl-8-bromo-5-chloro-4-oxo-1,4-dihydroquinolin-2-yl)thio)acetonitrile]	> 2	> 2	> 10	> 2	> 2	> 2	> 2
COC(=O)c1ccc(C[S+]([O-])c2[nH]c3c(Cl)ccc(Cl)c3c(=O)c2C(C)=O)cc1 (stereo not drawn) [Compound 91, methyl 4-(((3-acetyl-5,8-dichloro-4-oxo-1,4-dihydroquinolin-2-yl)sulfinyl)methyl)benzoate]	> 2	> 2	> 10	> 2	> 2	1.42	> 2
CSc1c(C(C)=O)c(=O)c2c(Cl)ccc(Br)c2n1S(=O)(=O)c1ccc(Cl)cc1 [Compound 37, 3-acetyl-8-bromo-5-chloro-1-((4-chlorophenyl)sulfonyl)-2-(methylthio)quinolin-4(1H)-one]	> 2	> 2	> 10	> 2	> 2	> 2	> 2
CC(=O)c1c([S+]([O-])Cc2ccc(C(F)(F)F)nc2C)[nH]c2c(Br)ccc(Cl)c2c1=O (stereo not drawn) [Compound 102, 3-acetyl-8-bromo-5-chloro-2-(((2-methyl-6-(trifluoromethyl)pyridin-3-yl)methyl)sulfinyl)quinolin-4(1H)-one]	1.54	> 2	> 10	1.66	> 2	0.69	> 2
